Common to all, as to assay: biochemical
In test [1] the target is T1, panel of 374 wild-type kinases (Homo sapiens, UniProt Q16832).
T1 construct: purchased Reaction Biology Corporation
T1 sequence (Q16832 22-855): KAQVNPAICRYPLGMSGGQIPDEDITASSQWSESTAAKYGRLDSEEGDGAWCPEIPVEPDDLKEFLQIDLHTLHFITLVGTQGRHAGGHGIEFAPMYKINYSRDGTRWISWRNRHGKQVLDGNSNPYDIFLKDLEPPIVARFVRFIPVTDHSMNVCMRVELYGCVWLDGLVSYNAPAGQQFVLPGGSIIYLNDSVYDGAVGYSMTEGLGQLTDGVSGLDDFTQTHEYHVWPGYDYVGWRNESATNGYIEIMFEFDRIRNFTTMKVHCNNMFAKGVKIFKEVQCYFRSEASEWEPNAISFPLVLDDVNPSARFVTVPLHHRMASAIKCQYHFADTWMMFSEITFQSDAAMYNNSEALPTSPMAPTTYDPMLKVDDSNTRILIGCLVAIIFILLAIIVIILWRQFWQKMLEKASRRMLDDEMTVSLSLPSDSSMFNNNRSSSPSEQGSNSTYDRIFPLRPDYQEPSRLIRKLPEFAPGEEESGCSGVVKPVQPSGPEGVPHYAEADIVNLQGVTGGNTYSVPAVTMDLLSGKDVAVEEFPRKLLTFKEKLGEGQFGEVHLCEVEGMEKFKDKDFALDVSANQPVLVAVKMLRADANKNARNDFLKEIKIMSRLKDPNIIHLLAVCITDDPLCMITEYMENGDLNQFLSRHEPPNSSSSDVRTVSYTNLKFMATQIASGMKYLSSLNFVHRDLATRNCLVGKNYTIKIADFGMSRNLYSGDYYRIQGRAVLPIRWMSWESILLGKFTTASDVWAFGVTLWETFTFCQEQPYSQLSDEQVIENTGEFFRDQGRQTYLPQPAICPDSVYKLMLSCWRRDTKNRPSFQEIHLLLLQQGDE
Particulars: read-out: % Enzyme Activity (relative to DMSO controls), DDR2.

The target in test [2] is T2, panel of 374 wild-type kinases (Homo sapiens, UniProt P57059).
T2 construct: purchased Reaction Biology Corporation

Test [3] addresses T3, panel of 374 wild-type kinases (Homo sapiens, UniProt Q9UBS0).
T3 construct: purchased Reaction Biology Corporation
Particulars: read-out: % Enzyme Activity (relative to DMSO controls), kinase p70S6Kb/RPS6KB2.

Test [4] has as its target T4, panel of 374 wild-type kinases (Homo sapiens, UniProt Q96RG2).
T4 construct: purchased Reaction Biology Corporation
Particulars: read-out: % Enzyme Activity (relative to DMSO controls), kinase PASK.

The target in test [5] is T5, panel of 374 wild-type kinases (Homo sapiens, UniProt Q86UX6).
T5 construct: purchased Reaction Biology Corporation
T5 sequence (Q86UX6 whole entry): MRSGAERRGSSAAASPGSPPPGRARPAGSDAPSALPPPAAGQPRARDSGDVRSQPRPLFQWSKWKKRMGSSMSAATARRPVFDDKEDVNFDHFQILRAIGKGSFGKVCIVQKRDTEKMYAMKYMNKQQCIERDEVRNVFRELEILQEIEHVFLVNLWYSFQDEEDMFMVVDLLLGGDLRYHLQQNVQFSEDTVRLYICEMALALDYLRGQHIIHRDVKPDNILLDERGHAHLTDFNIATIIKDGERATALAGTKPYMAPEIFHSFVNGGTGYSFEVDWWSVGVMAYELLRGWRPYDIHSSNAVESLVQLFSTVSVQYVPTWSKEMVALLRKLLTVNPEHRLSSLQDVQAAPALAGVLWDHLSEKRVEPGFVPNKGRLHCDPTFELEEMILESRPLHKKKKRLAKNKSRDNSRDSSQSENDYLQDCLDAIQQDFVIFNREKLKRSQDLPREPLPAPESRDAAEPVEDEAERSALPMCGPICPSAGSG
Particulars: read-out: % Enzyme Activity (relative to DMSO controls), kinase STK32C/YANK3.

The target in test [6] is T6, panel of 374 wild-type kinases (Homo sapiens, UniProt P09619).
T6 construct: purchased Reaction Biology Corporation
T6 sequence (P09619 33-1106): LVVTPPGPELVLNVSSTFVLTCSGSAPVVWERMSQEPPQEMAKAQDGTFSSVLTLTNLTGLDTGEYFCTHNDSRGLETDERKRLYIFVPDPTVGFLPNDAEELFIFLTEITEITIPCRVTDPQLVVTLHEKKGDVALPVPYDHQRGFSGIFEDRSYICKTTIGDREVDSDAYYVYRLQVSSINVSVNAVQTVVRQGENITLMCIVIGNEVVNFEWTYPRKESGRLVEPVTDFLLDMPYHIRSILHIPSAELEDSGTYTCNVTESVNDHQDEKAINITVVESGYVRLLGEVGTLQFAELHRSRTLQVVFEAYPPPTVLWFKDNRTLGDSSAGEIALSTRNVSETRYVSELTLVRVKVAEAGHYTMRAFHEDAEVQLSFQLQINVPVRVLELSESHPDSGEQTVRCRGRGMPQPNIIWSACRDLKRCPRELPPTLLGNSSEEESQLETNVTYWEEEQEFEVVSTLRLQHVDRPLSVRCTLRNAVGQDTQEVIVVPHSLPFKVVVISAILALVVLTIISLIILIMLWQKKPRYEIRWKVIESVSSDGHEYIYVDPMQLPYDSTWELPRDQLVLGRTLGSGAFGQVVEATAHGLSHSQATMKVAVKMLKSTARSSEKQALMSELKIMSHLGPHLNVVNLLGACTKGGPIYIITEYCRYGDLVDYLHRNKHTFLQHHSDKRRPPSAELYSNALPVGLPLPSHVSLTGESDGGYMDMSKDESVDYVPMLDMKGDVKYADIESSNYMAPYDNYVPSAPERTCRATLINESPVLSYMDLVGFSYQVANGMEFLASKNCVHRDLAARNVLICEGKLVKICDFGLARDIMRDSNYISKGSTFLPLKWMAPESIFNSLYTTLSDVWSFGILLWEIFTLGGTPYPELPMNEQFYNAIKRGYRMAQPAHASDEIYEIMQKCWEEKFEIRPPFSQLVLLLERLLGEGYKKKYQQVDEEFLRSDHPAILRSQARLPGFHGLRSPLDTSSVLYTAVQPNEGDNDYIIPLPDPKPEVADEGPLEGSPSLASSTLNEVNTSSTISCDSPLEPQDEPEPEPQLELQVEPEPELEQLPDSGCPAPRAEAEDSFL
Particulars: read-out: % Enzyme Activity (relative to DMSO controls), kinase PDGFRb.

In test [7] the target is T7, panel of 374 wild-type kinases (Homo sapiens, UniProt P51813).
T7 construct: purchased Reaction Biology Corporation
T7 sequence (P51813 1-675): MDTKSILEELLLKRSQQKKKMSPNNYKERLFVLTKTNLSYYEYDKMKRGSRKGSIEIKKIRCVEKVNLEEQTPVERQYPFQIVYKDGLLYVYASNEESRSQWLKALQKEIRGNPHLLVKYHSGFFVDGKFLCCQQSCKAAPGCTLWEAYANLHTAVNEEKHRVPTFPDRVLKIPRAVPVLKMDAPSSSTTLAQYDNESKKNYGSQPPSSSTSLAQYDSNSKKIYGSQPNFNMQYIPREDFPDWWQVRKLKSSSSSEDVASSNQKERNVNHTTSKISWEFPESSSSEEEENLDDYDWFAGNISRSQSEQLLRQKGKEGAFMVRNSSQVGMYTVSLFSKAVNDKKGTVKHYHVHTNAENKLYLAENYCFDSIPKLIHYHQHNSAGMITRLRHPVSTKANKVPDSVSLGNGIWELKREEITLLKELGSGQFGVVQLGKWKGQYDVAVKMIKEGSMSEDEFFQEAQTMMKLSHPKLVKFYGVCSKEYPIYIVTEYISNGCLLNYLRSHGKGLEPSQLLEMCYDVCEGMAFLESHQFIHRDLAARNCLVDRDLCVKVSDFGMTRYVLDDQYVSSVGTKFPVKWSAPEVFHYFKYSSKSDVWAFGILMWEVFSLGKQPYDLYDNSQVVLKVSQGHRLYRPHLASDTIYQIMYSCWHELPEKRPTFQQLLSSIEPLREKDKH
The settings on record: read-out: % Enzyme Activity (relative to DMSO controls), BMX/ETK.

In test [8] the target is T8, panel of 374 wild-type kinases (Homo sapiens, UniProt Q16539).
T8 construct: purchased Reaction Biology Corporation
T8 sequence (Q16539 whole entry): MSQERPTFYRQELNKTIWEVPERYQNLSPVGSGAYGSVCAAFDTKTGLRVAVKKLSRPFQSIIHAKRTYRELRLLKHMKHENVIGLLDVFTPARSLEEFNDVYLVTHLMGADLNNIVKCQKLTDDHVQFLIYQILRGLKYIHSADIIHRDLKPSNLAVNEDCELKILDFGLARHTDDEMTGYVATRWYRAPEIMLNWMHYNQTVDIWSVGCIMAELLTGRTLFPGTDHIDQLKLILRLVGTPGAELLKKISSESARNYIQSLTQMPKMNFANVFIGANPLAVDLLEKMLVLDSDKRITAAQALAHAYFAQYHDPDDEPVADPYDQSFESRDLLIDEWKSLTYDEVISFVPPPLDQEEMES
The settings on record: P38a/MAPK14, read-out: % Enzyme Activity (relative to DMSO controls).

For test [9], the target named is T9, panel of 374 wild-type kinases (Homo sapiens, UniProt Q9UM73).
T9 construct: purchased Reaction Biology Corporation
Particulars: read-out: % Enzyme Activity (relative to DMSO controls), ALK.

Test [10] deals with T10, panel of 374 wild-type kinases (Homo sapiens, UniProt P78362).
T10 construct: purchased Reaction Biology Corporation
T10 sequence (P78362 whole entry): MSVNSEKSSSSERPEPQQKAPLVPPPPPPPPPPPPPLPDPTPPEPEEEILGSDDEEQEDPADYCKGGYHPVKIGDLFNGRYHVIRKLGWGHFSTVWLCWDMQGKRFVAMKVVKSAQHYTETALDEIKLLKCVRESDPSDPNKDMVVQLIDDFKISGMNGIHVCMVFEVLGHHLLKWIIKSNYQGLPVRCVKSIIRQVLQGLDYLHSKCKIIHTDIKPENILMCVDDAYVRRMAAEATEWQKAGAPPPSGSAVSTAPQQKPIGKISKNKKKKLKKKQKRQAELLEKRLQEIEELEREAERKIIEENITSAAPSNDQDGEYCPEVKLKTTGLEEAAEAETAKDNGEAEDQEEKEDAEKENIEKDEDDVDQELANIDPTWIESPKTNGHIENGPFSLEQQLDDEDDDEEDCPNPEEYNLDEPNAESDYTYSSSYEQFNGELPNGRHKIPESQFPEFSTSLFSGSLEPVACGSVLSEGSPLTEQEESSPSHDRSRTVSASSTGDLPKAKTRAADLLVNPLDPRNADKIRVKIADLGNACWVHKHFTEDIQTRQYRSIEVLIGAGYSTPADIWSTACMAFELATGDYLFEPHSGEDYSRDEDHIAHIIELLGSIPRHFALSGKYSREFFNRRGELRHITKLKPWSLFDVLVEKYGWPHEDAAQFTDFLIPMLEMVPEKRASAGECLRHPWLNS
The settings on record: read-out: % Enzyme Activity (relative to DMSO controls), kinase SRPK2.

In test [11] the target is T11, panel of 374 wild-type kinases (Homo sapiens, UniProt O00238).
T11 construct: purchased Reaction Biology Corporation
T11 sequence (O00238 14-502): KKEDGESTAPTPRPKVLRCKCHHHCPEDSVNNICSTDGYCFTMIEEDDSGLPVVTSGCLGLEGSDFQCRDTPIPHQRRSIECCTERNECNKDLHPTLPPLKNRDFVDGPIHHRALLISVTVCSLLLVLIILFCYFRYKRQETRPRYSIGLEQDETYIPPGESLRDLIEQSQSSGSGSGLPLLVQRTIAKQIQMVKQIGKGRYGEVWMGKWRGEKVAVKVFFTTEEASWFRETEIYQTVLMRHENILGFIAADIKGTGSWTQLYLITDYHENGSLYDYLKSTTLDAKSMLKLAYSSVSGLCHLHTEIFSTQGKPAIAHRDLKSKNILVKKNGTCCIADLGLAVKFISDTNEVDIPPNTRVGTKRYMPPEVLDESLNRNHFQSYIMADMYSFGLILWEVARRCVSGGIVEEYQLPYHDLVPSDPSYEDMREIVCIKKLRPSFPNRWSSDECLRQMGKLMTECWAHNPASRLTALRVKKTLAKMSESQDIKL
Particulars: read-out: % Enzyme Activity (relative to DMSO controls), ALK6/BMPR1B.

The target in test [12] is T12, panel of 374 wild-type kinases (Homo sapiens, UniProt P22455).
T12 construct: purchased Reaction Biology Corporation
The settings on record: for remaining activity at 5 µM: read-out: % Enzyme Activity (relative to DMSO controls), FGFR4.

For test [13], the target named is T13, panel of 374 wild-type kinases (Homo sapiens, UniProt Q9HCP0).
T13 construct: purchased Reaction Biology Corporation
The settings on record: read-out: % Enzyme Activity (relative to DMSO controls), CK1g1.

Read-outs that look alike come from different tables or passages of the source.

T3 sequence (Q9UBS0 whole entry): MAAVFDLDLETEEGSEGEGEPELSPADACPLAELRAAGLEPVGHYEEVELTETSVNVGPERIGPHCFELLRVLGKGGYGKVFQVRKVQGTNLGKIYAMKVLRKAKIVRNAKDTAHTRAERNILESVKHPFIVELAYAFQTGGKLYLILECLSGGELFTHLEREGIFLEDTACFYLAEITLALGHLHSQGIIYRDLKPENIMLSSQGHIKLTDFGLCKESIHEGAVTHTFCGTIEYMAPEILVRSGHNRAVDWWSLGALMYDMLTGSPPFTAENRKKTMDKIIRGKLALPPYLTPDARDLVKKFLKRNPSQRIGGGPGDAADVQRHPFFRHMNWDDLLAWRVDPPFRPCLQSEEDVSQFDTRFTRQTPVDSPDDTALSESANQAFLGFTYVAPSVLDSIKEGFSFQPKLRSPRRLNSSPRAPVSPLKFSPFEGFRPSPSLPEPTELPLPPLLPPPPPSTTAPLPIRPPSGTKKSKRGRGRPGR
T4 sequence (Q96RG2 whole entry): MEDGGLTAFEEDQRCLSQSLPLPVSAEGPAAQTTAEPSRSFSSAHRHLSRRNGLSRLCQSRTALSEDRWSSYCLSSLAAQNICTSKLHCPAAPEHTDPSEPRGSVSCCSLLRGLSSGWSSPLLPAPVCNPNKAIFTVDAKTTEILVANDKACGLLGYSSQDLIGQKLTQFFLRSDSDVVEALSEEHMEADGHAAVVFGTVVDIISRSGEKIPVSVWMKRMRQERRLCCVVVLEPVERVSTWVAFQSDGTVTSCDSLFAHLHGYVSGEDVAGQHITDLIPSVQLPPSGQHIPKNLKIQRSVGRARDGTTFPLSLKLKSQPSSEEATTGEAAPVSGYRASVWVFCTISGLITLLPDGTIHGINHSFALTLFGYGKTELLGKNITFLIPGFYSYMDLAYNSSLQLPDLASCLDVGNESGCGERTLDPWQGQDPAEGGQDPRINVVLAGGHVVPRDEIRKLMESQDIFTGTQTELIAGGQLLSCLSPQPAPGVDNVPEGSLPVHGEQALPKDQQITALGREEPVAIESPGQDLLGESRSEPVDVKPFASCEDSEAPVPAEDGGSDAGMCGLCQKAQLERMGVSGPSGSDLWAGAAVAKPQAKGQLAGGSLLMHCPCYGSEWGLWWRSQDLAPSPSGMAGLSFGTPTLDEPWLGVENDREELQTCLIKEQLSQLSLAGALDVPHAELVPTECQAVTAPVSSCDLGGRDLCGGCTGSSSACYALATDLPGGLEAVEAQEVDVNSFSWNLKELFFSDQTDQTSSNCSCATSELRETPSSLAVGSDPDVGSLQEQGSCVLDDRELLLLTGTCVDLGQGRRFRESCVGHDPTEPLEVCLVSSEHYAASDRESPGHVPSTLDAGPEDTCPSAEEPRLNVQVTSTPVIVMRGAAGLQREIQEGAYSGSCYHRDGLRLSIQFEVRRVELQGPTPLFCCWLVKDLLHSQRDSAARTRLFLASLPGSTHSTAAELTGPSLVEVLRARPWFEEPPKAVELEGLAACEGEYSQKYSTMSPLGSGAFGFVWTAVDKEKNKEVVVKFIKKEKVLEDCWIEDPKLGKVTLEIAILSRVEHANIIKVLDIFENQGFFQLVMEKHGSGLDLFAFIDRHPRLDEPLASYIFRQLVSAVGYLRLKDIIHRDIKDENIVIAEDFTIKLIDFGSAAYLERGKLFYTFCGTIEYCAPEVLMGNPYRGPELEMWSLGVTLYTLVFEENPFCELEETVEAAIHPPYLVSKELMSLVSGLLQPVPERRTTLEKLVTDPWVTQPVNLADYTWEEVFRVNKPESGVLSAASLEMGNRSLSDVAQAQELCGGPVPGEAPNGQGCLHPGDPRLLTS

For the compound `Cc1sc(C(=O)NC2COC2)cc1-n1cc(NC(=O)Nc2c(F)cccc2Cl)cn1` [Compound 27, 4-(4-(3-(2-chloro-6-fluorophenyl)ureido)-1H-pyrazol-1-yl)-5-methyl-N-(oxetan-3-yl)thiophene-2-carboxamide], the remaining activity at 10 µM in test [1] (10 uM) amounted to 111%; in test [2] (read-out: % Enzyme Activity (relative to DMSO controls), kinase SIK1, 10 uM), 99.8%; in [3] (10 uM), 98.9%; in test [4] (10 uM) it was 96.1%; in test [5] (10 uM), 112%; in test [6] (10 uM) it was 97.9%. Moreover, the remaining activity at 10 µM worked out at 92.9% in [7] (10 uM); 93.2% in [8] (10 uM); 100% in test [9] (10 uM); 114% in [10] (10 uM); 104% in test [11] (10 uM); 96.8% in [12] (FGFR4, 10 uM, read-out: % Enzyme Activity (relative to DMSO controls)). For the same compound, the remaining activity at 10 µM in test [13] (10 uM) stood at 101%.

In the case of `O=C(Nc1cnn(-c2csc(C(=O)NC3COC3)c2)c1)Nc1c(F)cccc1Cl` [Compound 25, 4-(4-(3-(2-chloro-6-fluorophenyl)ureido)-1H-pyrazol-1-yl)-N-(oxetan-3-yl)thiophene-2-carboxamide], the remaining activity at 5 µM in test [1] came to 96.6%; in [2] (kinase SIK1, read-out: % Enzyme Activity (relative to DMSO controls)) it was 98.3%; in [3] it was 101%; in [4], 99.7%; in test [5], 90.7%; in test [6], 101%. The remaining activity at 5 µM amounted to 96.8% in [7]; 105% in [8]; 89.2% in test [9]; 94% in test [10]; 114% in [11]; 99.6% in test [12]. In test [13], the remaining activity at 5 µM came to 102%.

In the case of `O=C(Nc1cnn(-c2csc(C(=O)NC3COC3)c2)c1)Nc1ccccc1Cl` [Compound 17, 4-(4-(3-(2-chlorophenyl)ureido)-1H-pyrazol-1-yl)-N-(oxetan-3-yl)thiophene-2-carboxamide], the remaining activity at 5 µM amounted to 99.8% in [1]; 102% in [2] (read-out: % Enzyme Activity (relative to DMSO controls), kinase SIK1); 94.2% in [3]; 96.3% in [4]; 113% in test [5]; 107% in test [6]. For the same compound, the remaining activity at 5 µM in test [7] came to 106%; in test [8], 142%; in test [9], 101%; in test [10], 95.6%; in test [11], 109%; in test [12], 88.2%. In addition, in [13], the remaining activity at 5 µM was found to be 99%.

These data come from US20240246942A1, “KINASE INHIBITORS FOR THE TREATMENT OF NEURODEGENERATIVE DISEASES” (priority 2020, published 2024).
